Assay results taken from patent publication US20250353812A1, “2,6-DIBENZYLIDENECYCLOHEXANONE OXIME COMPOUND AND PREPARATION METHOD THEREFOR AND USE THEREOF” (WENZHOU MEDICAL UNIVERSITY, priority 2022, published 2025).

Assays:
IL-6 = experiment: Inhibition of IL-6 release from J774A.1 macrophages stimulated by LPS (ELISA); format: cell-based; conditions: 10 μM compound pretreatment 2 h, then 0.5 μg/mL LPS 22 h, LPS control = 100, FIG. 1
Protocol: (§1) The present invention tested the dose-effect relationship of some of the compounds of Examples in inhibiting the release of IL-6 and TNF-α from J774A.1 macrophages stimulated by LPS. The specific method is as follows: 1.2×10^6 […] macrophages were cultured by DMEM culture solution at 37° C., the culture solution was renewed after 24 h, the tested example compound (at a final concentration of 10 μM) was added for pretreatment for 2 h and then continuously treated by 0.5 μg/mL of LPS for 22 h, the culture solution was collected, and the content of IL-6 and TNF-α was detected by ELISA method. The total protein concentration was measured by collecting cells, the ELISA results were divided by the corresponding total protein concentration and calibrated by the IL-6 and TNF-α content of LPS control group as 100, and the average and error values were calculated.

[1] = test system: liver lipid metabolism of obese mice; experiment: Protective effect on liver lipid metabolism of obese mice (high-fat diet); format: in vivo; conditions: HFD mice; Example 9 12 mg/kg, Example 2 10 mg/kg, intragastric gavage every two days for 8 weeks
Protocol: (§2) A suspension of 0.5% sodium carboxymethylcellulose and the compounds of Examples was prepared for intragastric administration. The blank control group and the high-fat diet obesity model group were administrated with equal doses of solvent (0.5% CMC-Na solution) intragastrically. The mice were first adaptively raised for 1 week, and when the mice were 8 weeks old, they were randomly divided into 2 groups (A: Con, B: HFD). Group A was fed with normal mouse feed, and mice in group B were fed with 60% high-fat feed for 16 weeks. After the model was successfully established at 12 weeks, the mice in group B were randomly divided into three groups (i: HFD, ii: HFD+Example 9, 12 mg/kg, iii: HFD+Example 2, 10 mg/kg). The body weight of the mice was measured and recorded every week, and groups ii and iii were treated with the compounds of Examples by intragastric gavage every two days for 8 weeks. After 24 weeks, the mice were anesthetized and sacrificed, and blood samples were collected and centrifuged to collect serum for various serum biochemical tests; the liver was removed, and the liver tissue was cut and embedded (frozen and paraffin) for immunohistochemistry and other analyses. The remaining liver tissues were snap frozen in liquid nitrogen and stored in a −80° C. freezer.
The liver lipid metabolism of obese mice is taken as an example. […] It can be clearly seen from the above test results that the compound having the structure of formula I of the present invention has a protective effect on the liver lipid metabolism of obese mice.

[2] = test system: liver inflammation in obese mice; experiment: Protective effect on liver inflammation in obese mice (high-fat diet); format: in vivo; conditions: HFD mice, Example 9 12 mg/kg, intragastric gavage every two days for 8 weeks; for macrophage infiltration in the liver (F4/80 staining) / upregulation of IL-1β gene in mouse liver tissue (mRNA) / upregulation of IL-6 gene in mouse liver tissue (mRNA) / upregulation of TNF-α gene in mouse liver tissue (mRNA): Example 2 10 mg/kg
Protocol: as §2
Taking the compounds of Examples 2 and 9 as examples, the experimental results are shown in FIGS. 3A-3D and FIGS. 4A-4E, where 2 and 9 represent the compounds of Example 2 and Example 9, respectively. Inflammation was assessed by examining macrophage infiltration in the liver using the macrophage-specific marker F4/80 staining. […] In addition, the expression of TNF-α, IL-6 and IL-1β genes in liver tissue was detected.

TNF-α = experiment: Inhibition of TNF-α release from J774A.1 macrophages stimulated by LPS (ELISA); format: cell-based; conditions: 10 μM compound pretreatment 2 h, then 0.5 μg/mL LPS 22 h, LPS control = 100, FIG. 2
Protocol: as §1

Question: Which “inhibitory effect on the release of IL-6” value (IL-6) does the source give for `ON=C1/C(=C/c2ccccc2C(F)(F)F)CCC/C1=C\c1ccccc1C(F)(F)F` [Example 9, 2,6-(E,E)-(2-(trifluoromethyl)benzylidene)cyclohexanone oxime] here?
Answer: significant inhibitory effect

Question: What about the “dyslipidemia caused by high-fat diet feeding (serum triglycerides, low-density lipoprotein cholesterol, total cholesterol)” value [1] of the same compound?
Answer: significantly alleviated

Question: What about the “lipid accumulation in the liver (H&E staining)” value [1] of the same compound?
Answer: significantly alleviated

Question: And the “lipid accumulation in the liver (oil red staining of frozen sections, quantified)” value [1]?
Answer: significantly alleviates

Question: What about the “macrophage infiltration in the liver (F4/80 staining)” value [2] of the same compound?
Answer: decreased

Question: What about the “upregulation of IL-1β gene in mouse liver tissue (mRNA)” value [2] of the same compound?
Answer: significantly alleviated

Question: What about the “upregulation of IL-6 gene in mouse liver tissue (mRNA)” value [2] of the same compound?
Answer: significantly alleviated

Question: And the “upregulation of TNF-α gene in mouse liver tissue (mRNA)” value [2]?
Answer: significantly alleviated

Question: What about the “degradation of IκB-α in the liver caused by high-fat diet feeding (Western blot)” value [2] of the same compound?
Answer: significantly inhibit

Question: What about the “inhibitory effect on the release of TNF-α” value (TNF-α) of the same compound?
Answer: significant inhibitory effect

Question: With `CCCON=C1/C(=C/c2ccccc2C(F)(F)F)CCC/C1=C\c1ccccc1C(F)(F)F` [Example 2, 2,6-(E,E)-(2-(trifluoromethyl)benzylidene)cyclohexan-1-one propyl oxime] as the compound, how does the “inhibitory effect on the release of IL-6” value (IL-6) read?
Answer: significant inhibitory effect

Question: And the “dyslipidemia caused by high-fat diet feeding (serum triglycerides, low-density lipoprotein cholesterol, total cholesterol)” value [1]?
Answer: significantly alleviated

Question: What about the “lipid accumulation in the liver (H&E staining)” value [1] of the same compound?
Answer: significantly alleviated

Question: And the “lipid accumulation in the liver (oil red staining of frozen sections, quantified)” value [1]?
Answer: significantly alleviates

Question: And the “macrophage infiltration in the liver (F4/80 staining)” value [2]?
Answer: decreased

Question: What about the “upregulation of IL-1β gene in mouse liver tissue (mRNA)” value [2] of the same compound?
Answer: significantly alleviated

Question: What about the “upregulation of IL-6 gene in mouse liver tissue (mRNA)” value [2] of the same compound?
Answer: significantly alleviated

Question: And the “upregulation of TNF-α gene in mouse liver tissue (mRNA)” value [2]?
Answer: significantly alleviated

Question: And the “inhibitory effect on the release of TNF-α” value (TNF-α)?
Answer: significant inhibitory effect
